Reference: ChEMBL document CHEMBL1201862, “PubChem BioAssay data set” (2004)
Active and inactive are the calls of the source.

Tests used:
[1] = M. tuberculosis H37Rv growth inhibitors, H37Rv strain (AID 1626); assay type: functional
[2] = target: T1, NADPH oxidase 1 (Homo sapiens, UniProt Q9Y5S8); test: Luminescence-based cell-based dose response assay to identify inhibitors of NADPH oxidase 1 (NOX1).; assay type: functional
T1 sequence (Q9Y5S8 whole entry): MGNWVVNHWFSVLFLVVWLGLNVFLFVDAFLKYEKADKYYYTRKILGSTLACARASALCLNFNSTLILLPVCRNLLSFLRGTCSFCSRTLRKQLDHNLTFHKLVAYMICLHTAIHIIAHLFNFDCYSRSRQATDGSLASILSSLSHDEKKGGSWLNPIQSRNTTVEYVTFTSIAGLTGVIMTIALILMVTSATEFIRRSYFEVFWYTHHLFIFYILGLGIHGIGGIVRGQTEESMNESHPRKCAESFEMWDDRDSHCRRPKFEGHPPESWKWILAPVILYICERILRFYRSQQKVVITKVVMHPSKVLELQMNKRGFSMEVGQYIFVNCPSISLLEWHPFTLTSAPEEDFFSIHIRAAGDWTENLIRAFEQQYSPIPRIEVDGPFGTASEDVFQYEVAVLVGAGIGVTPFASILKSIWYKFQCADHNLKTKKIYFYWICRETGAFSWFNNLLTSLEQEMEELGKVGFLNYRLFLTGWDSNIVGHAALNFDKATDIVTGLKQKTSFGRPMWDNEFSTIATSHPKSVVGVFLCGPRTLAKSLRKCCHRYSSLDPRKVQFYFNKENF

[3] = target: T2, Mannose-6-phosphate isomerase (Homo sapiens, UniProt P34949); test: inhibitors of human PMI, primary screen, biochemical, fluorescence intensity, coupled assay (AID 1209)
T2 sequence (P34949 whole entry): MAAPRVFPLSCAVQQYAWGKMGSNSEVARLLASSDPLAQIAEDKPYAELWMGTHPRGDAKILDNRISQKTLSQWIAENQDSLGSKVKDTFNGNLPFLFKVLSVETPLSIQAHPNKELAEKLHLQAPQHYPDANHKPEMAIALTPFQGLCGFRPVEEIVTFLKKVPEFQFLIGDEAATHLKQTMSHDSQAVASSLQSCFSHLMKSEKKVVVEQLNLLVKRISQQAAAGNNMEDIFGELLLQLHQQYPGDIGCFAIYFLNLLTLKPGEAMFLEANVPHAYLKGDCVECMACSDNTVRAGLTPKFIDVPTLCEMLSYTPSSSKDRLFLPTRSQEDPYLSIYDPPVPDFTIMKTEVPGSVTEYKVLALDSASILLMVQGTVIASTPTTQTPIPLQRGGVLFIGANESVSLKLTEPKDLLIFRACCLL

[4] = target: Potassium voltage-gated channel subfamily KQT member 2 (Rattus norvegicus, UniProt O88943, W236L); test: KCNQ2 channel potentiators, dose response, mechanism study for KCNQ2 potentiator project, cell-based, automated electrophysiology (AID 2603); assay type: functional
[5] = system: Vero; test: Vero cell cytotoxicity, cytotoxicity control for flavivirus capping enzyme inhibitors (AID 588742); assay type: functional; conditions: Chlorocebus sabaeus
[6] = Intein inhibitors as potential Tuberculosis drugs, a cytotoxicity screen. [Related pubchem assays (depositor defined):AID2221, AID2223, AID434968, AID435010, AID449749, AID449750, AID489010]; assay type: functional
[7] = Shn3 3'UTR reporter inhibitors, dose response, cell-based, Clone20 osteoblasts, firefly luciferase, cherry-picked (AID 624132); assay type: functional;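 further: firefly luciferase luminescence from reporter carrying the Shn3 3'UTR in osteoblasts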
[8] = target: T3, Protein RecA (Mycobacterium tuberculosis, UniProt P9WHJ3); test: Fluorescence Cell-Free Homogeneous Dose Retest to Identify Inhibitors of RecA-Intein Splicing Activity. [Related pubchem assays (depositor defined):AID2097, AID2223, AID489010, AID492950]; assay type: functional
T3 sequence (P9WHJ3 whole entry): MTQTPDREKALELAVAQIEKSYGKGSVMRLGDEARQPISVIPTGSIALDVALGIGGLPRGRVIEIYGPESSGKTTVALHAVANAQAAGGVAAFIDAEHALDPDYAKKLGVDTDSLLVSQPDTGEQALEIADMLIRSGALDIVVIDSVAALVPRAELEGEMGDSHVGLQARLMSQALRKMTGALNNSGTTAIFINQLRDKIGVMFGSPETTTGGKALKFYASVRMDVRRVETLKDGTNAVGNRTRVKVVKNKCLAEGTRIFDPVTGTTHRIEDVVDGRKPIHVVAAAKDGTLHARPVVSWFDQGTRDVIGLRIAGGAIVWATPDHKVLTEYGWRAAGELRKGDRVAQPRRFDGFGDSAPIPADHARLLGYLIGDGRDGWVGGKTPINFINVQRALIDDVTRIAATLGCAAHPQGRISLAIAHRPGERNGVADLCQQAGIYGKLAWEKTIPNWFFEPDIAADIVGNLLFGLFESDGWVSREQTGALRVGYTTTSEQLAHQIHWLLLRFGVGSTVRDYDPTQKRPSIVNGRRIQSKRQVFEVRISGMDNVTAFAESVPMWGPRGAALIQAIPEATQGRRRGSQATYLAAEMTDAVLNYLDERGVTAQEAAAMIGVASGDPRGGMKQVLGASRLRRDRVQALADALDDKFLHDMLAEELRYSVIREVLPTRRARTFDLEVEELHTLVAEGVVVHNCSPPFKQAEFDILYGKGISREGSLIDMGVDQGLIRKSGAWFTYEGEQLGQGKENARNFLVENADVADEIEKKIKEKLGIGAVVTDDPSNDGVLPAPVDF

[9] = target: Hepatocyte nuclear factor 4-alpha (Homo sapiens, UniProt P41235); assay type: functional, cell-based;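 further: biochemical luminescence-based dose-response counterscreen measuring inhibition of HNF4 dimerization, run alongside a screen for blockers of ABHD5–perilipin-5 interaction; split luciferase complementation of HNF4 fusion proteins in cell lysate measuring dimerization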
[10] = Luminescence Cell-Based Dose Retest to Confirm Inhibitors of Cancer Stem Cells. [Related pubchem assays (depositor defined):AID2717, AID2721]; assay type: functional; conditions: Homo sapiens
[11] = control 3'UTR Renilla luciferase suppression, dose response, counter-screen for Shn3 inhibitor project, cell-based, Clone20-Shn3RL, cherry-picked (AID 624133); assay type: functional
[12] = target: T4, Replicative DNA helicase DnaB (Mycobacterium tuberculosis, UniProt P9WMR3); test: DnaB intein splicing inhibitors, dose response, biochemical, cell-free fluorescence (AID 449749); assay type: functional
T4 sequence (P9WMR3 whole entry): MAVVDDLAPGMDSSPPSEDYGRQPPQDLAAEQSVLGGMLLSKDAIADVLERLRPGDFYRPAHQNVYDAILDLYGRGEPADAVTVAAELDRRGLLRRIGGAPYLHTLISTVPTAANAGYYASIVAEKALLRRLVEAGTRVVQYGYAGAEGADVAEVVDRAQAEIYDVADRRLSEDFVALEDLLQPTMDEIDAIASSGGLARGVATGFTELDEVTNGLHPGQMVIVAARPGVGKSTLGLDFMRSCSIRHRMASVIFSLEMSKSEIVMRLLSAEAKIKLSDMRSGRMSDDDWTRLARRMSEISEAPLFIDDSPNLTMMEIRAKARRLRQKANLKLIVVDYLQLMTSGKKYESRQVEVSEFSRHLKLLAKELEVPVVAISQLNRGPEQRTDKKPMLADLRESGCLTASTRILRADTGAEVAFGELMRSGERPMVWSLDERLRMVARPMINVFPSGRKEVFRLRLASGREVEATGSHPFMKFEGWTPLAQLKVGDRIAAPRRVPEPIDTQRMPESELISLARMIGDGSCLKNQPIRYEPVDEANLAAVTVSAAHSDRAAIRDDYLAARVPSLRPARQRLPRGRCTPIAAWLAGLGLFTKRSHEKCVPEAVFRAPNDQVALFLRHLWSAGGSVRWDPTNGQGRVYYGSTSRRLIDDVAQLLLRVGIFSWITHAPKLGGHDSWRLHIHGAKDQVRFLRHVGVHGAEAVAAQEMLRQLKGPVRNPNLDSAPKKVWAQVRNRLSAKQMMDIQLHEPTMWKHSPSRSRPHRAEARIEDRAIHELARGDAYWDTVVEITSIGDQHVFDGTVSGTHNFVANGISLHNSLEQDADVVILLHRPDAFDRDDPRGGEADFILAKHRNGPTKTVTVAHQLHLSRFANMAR

[13] = target: Genome polyprotein (dengue virus type 2, UniProt P29990); test: Dengue-2 NS5 methyltransferase inhibitors, primary screen, biochemical, confirmation dose response (AID 588689); assay type: functional
[14] = target: Glyceraldehyde-3-phosphate dehydrogenase (Homo sapiens, UniProt P04406)
[15] = target: T5, Induced myeloid leukemia cell differentiation protein Mcl-1 (Homo sapiens, UniProt Q07820); assay type: functional
[16] = target: T6, Dual specificity protein phosphatase 6 (Rattus norvegicus, UniProt Q64346)
T6 sequence (Q64346 whole entry): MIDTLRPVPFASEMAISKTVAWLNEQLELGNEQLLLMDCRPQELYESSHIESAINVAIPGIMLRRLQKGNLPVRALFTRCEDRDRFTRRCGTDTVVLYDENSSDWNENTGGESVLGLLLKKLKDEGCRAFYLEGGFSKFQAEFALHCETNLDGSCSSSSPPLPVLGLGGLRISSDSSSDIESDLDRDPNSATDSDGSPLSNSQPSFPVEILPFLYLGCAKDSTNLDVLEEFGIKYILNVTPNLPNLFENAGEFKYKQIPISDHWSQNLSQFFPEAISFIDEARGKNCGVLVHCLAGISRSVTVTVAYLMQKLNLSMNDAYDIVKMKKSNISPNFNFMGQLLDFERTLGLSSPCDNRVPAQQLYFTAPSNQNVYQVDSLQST

[17] = target: T5, Induced myeloid leukemia cell differentiation protein Mcl-1; test: MCL1-BIM BH3 interaction inhibitors, dose response, biochemical, fluorescence polarization, BIM-BH3 peptide, 1536-well (AID 2217)
[18] = target: T7, Tyrosine-protein phosphatase non-receptor type 7 (Homo sapiens, UniProt P35236); assay type: functional
T7 sequence (P35236 whole entry): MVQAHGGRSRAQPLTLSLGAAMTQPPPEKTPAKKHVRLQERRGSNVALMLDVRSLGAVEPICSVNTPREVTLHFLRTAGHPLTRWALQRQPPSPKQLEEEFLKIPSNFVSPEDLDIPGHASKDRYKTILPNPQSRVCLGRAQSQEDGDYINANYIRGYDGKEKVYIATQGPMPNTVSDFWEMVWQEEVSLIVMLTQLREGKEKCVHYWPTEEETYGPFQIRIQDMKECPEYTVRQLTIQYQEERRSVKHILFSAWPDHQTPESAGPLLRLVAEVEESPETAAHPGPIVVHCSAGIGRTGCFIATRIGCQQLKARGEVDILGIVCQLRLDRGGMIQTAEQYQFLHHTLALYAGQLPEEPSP

[19] = target: Protein-tyrosine kinase 2-beta (Homo sapiens, UniProt Q14289);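 further: potency of inhibitors of PYK2 kinase phosphorylation of poly-GT substrate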
[20] = target: Bcl-2-like protein 1 (Homo sapiens, UniProt Q07817); test: BCL-XL inhibitors, dose response, selectivity assay for MCL1 inhibitor project, biochemical, fluorescence polarization, 1536-well (AID 2218)
[21] = target: T6, Dual specificity protein phosphatase 6; assay type: functional
[22] = target: Epstein-Barr nuclear antigen 1 (Epstein-Barr virus (strain B95-8) (HHV-4) (Human herpesvirus 4), UniProt P03211); test: EBNA-1 inhibitors, dose response, biochemical, fluorescence polarization, 1536-well (AID 2381); parameters: species or system human gammaherpesvirus 4;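 further: fluorescence polarization of a Cy5 DNA probe bound by EBNA-1 protein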
[23] = target: T8, Calpain-2 catalytic subunit (Sus scrofa, UniProt P43367); test: pig calpain II inhibitor potency, dose response, biochemical, fluorogenic peptide substrate (AID 1420); assay type: functional
T8 sequence (P43367 whole entry): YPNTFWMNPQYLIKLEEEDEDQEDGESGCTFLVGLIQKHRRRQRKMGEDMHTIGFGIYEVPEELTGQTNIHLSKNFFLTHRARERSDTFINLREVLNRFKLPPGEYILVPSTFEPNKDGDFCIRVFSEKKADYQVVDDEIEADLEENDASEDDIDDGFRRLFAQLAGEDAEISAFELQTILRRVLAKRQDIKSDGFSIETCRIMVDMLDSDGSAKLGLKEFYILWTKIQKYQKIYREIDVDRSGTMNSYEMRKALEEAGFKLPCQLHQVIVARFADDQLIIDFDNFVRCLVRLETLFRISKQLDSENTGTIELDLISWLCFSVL

[24] = target: Lytic switch protein BZLF1 (Epstein-Barr virus (strain B95-8) (HHV-4) (Human herpesvirus 4), UniProt P03206); test: EBV ZTA inhibitors, dose response, counter-screen for EBNA-1 inhibitor project, biochemical, fluorescence polarization, Epstein-Barr virus, 1536-well (AID 2377); parameters: species or system human gammaherpesvirus 4;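 further: fluorescence polarization of Cy5-labelled ZRE DNA probe bound by purified Zta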
Sequence of Lytic switch protein BZLF1 (P03206 whole entry): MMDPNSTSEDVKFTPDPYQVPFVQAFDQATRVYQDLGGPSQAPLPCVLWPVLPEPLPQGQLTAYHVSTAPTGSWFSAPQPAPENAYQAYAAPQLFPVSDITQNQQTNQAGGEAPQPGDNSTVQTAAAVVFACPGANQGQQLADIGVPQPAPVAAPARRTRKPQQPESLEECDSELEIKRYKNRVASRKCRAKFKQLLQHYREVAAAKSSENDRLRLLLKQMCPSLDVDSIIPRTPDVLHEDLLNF

T5 sequence (Q07820 whole entry): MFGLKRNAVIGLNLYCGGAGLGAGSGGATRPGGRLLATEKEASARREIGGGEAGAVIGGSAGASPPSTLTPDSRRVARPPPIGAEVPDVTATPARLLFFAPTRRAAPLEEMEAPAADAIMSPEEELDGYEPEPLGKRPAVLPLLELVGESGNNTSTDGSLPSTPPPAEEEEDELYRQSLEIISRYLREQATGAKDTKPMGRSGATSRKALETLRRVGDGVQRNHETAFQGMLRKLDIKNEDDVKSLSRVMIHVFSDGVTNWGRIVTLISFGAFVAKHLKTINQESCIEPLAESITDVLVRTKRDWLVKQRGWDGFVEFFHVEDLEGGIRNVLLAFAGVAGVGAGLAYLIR
Sequence of Genome polyprotein (P29990 2492-3391 limits assumed): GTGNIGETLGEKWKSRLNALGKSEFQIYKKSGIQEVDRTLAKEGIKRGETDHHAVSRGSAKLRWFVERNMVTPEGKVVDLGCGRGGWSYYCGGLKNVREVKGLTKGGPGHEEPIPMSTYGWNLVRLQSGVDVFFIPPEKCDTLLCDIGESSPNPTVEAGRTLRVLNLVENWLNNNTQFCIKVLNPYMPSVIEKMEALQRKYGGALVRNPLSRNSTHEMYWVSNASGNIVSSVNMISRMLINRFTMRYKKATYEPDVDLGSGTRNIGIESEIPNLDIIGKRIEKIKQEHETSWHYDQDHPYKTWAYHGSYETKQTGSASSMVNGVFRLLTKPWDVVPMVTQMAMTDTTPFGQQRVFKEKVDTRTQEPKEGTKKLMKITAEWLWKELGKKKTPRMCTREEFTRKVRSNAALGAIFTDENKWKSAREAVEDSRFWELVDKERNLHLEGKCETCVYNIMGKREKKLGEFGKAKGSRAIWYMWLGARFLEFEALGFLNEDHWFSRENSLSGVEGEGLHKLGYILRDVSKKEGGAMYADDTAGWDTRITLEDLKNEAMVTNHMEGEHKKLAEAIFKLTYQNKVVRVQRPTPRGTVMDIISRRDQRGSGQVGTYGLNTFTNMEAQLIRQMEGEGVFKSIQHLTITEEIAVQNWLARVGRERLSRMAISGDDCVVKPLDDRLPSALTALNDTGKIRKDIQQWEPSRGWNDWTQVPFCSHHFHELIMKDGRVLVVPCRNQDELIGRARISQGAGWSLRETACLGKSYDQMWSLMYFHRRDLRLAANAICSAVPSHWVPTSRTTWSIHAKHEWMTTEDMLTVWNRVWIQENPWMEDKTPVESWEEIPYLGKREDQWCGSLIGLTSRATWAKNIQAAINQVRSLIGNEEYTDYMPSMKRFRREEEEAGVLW
Sequence of Epstein-Barr nuclear antigen 1 (P03211 whole entry): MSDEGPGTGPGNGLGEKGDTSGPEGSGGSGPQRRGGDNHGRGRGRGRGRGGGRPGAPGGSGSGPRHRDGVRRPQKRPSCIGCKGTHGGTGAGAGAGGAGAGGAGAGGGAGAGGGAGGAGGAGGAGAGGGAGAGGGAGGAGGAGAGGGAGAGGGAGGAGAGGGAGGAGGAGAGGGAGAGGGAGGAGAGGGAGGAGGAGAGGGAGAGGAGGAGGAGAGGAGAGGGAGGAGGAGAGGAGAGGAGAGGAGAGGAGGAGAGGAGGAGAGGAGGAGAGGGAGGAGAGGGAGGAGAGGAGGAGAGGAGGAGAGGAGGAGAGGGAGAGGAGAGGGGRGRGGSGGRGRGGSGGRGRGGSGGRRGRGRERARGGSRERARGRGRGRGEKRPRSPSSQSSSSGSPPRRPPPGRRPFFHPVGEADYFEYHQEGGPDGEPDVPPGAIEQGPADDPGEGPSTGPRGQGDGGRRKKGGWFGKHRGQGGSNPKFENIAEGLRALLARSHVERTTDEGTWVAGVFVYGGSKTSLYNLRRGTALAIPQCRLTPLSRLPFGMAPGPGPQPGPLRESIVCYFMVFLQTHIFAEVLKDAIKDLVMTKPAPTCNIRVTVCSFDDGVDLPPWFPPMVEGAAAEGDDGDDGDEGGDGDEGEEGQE
Sequence of Bcl-2-like protein 1 (Q07817 whole entry): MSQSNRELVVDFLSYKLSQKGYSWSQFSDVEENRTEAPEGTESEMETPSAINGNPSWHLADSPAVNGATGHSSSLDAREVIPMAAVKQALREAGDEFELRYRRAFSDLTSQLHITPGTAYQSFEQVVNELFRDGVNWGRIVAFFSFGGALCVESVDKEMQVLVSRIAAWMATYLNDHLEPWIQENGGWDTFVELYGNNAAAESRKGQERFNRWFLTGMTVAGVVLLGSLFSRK
Sequence of Hepatocyte nuclear factor 4-alpha (P41235 whole entry, the tested form may be a part): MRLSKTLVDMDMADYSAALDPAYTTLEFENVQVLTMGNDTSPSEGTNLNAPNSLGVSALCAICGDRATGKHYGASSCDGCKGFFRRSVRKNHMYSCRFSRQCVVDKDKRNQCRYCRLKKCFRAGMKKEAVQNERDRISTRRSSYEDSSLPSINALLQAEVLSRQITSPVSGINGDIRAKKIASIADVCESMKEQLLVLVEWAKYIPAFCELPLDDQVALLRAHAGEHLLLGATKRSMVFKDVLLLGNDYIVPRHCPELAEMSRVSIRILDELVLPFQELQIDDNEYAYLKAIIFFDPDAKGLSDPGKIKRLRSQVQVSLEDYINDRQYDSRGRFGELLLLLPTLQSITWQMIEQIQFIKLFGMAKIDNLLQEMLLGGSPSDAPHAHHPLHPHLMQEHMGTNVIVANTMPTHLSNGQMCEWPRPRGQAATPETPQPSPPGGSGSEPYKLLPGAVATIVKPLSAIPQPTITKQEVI
Sequence of Potassium voltage-gated channel subfamily KQT member 2 (O88943 whole entry W236L): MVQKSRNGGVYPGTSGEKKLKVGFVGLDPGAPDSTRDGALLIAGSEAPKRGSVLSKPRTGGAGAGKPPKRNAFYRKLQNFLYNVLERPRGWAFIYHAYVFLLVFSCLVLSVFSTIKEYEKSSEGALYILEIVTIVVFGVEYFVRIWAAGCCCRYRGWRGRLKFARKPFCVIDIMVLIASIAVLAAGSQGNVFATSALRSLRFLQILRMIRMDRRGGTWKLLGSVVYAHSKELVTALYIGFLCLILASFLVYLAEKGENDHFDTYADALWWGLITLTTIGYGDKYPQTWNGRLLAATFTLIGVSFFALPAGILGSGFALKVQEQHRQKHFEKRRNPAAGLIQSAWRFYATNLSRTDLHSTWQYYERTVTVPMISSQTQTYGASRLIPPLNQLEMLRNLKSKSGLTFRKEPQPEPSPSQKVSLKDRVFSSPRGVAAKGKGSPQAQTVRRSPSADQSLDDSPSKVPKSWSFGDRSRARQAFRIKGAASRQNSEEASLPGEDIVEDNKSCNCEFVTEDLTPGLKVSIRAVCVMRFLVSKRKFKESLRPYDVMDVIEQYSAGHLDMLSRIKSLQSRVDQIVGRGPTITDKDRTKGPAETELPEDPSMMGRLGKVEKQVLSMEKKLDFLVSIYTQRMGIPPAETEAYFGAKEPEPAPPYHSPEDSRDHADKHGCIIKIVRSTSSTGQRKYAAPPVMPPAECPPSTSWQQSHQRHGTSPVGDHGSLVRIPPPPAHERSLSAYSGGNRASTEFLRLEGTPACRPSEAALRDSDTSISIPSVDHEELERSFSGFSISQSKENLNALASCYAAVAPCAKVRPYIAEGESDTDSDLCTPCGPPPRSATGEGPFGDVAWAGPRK
Sequence of Glyceraldehyde-3-phosphate dehydrogenase (P04406 whole entry): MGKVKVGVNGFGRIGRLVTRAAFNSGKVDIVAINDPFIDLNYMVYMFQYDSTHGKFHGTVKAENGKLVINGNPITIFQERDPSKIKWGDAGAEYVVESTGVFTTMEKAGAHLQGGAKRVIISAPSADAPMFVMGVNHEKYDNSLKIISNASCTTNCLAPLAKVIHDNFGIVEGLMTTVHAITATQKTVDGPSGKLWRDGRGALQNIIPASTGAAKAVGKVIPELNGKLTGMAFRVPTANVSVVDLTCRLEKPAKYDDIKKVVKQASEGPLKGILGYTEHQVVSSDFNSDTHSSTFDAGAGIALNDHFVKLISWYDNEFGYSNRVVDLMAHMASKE

SMILES: Nc1ccc(N=Nc2ccccc2)cc1
- IC50 [1]: > 100 µM (active)

SMILES: CCOc1ccc(NC(=O)Nc2ccc(N(C)C(C)=O)cc2)cc1
- IC50 [2]: > 20 µM (not active)

SMILES: CCOC(=O)NC1(Nc2cccc(Cl)c2)Oc2ccccc2O1
- IC50 [3]: > 50 µM (not active)

SMILES: CSc1nnc(NC(=O)c2nc(S(=O)(=O)Cc3ccccc3F)ncc2Cl)s1
- EC50 [4]: 4.19 µM (active)
- CC50 [5]: 27.8 µM (active)
- CC50 [6]: 35.4 µM (active)
- AC50 [7]: 1.55 µM (active)
- EC50 [8]: 3.5 µM (active)
- IC50 [9]: 3.98 µM (active)
- AC50 [10]: 2.14 µM (active)
- AC50 [11]: 13 µM (active)
- AC50 [12]: 5 µM (active)
- IC50 [13]: 52.3 µM (active)

SMILES: Cc1cc(NC(=O)Cc2cccs2)no1
- IC50 [14]: 92.2 µM (active)
- IC50 [15]: 1.58 µM (active)
- IC50 [16]: 15.3 µM (active)
- IC50 [17]: 4.05 µM (active)
- IC50 [18]: 3.93 µM (active)
- IC50 [19]: 6.64 µM (active)
- IC50 [20]: 53.2 µM (not active)
- IC50 [21]: 13.1 µM (active)

SMILES: CCOC(=O)c1ccc(NC(=O)C2CC(=O)Nc3nc4ccccc4n32)cc1 (centres undefined)
- IC50 [22]: > 5.47 µM (active)
- IC50 [23]: > 50 µM (not active)
- IC50 [24]: > 111 µM (not active)
